Several values for one entry are separate records, joined by “and”; a condition that tells them apart may be missing. Equal entries are not always repeated.
What was measured:
U251 = conditions: NCI Data NSC: 800934 ref 41; cited from earlier work
LOX IMVI = conditions: NCI Data NSC: 800934 ref 41; cited from earlier work
DU-145 = conditions: NCI Data NSC: 800934 ref 41; cited from earlier work
BT-549 = conditions: NCI Data NSC: 800934 ref 41; cited from earlier work
UO-31 = conditions: NCI Data NSC: 800934 ref 41; cited from earlier work
Renal cancer cell lines = conditions: read-out: MG-MID GI50; Renal Cancer subpanel; NCI Data NSC: 800934; cited from earlier work
MDA-MB-435 = conditions: NCI Data NSC: 800934 ref 41; cited from earlier work
M14 = conditions: NCI Data NSC: 800934 ref 41; cited from earlier work
[1] = system: Prostate cancer cell lines; conditions: read-out: MG-MID GI50; Prostatic Cancer subpanel; NCI Data NSC: 800934; cited from earlier work
SK-MEL-28 = conditions: NCI Data NSC: 800934 ref 41; cited from earlier work
NCI/ADR-RES = conditions: NCI Data NSC: 800934 ref 41; cited from earlier work
NCI-H522 = conditions: NCI Data NSC: 800934 ref 41; cited from earlier work
HCT-15 = conditions: NCI Data NSC: 800934 ref 41; cited from earlier work
RXF 393 = conditions: NCI Data NSC: 800934 ref 41; cited from earlier work
[2] = system: NCI 60-cell line panel (full panel); conditions: read-out: Full panel MG-MID GI50, NCI Data NSC: 800934; cited from earlier work
IGROV1 = conditions: NCI Data NSC: 800934 ref 41; cited from earlier work
Melanoma cell lines = conditions: read-out: MG-MID GI50; Melanoma subpanel; NCI Data NSC: 800934; cited from earlier work
OVCAR-3 = conditions: NCI Data NSC: 800934 ref 41; cited from earlier work
Colon cancer cell lines = conditions: read-out: MG-MID GI50; Colon Cancer subpanel; NCI Data NSC: 800934; cited from earlier work
HOP-62 = conditions: NCI Data NSC: 800934 ref 41; cited from earlier work
Leukaemia cell lines = conditions: read-out: MG-MID GI50; leukaemia subpanel; NCI Data NSC: 800934; cited from earlier work
OVCAR-8 = conditions: NCI Data NSC: 800934 ref 41; cited from earlier work
EKVX = conditions: NCI Data NSC: 800934 ref 41; cited from earlier work
NCI-H226 = conditions: NCI Data NSC: 800934 ref 41; cited from earlier work
SF-268 = conditions: NCI Data NSC: 800934 ref 41; cited from earlier work
NSCLC cell lines = conditions: read-out: MG-MID GI50; NSCLC subpanel; NCI Data NSC: 800934; cited from earlier work
COLO 205 = conditions: NCI Data NSC: 800934 ref 41; cited from earlier work
PC-3 = conditions: NCI Data NSC: 800934 ref 41; cited from earlier work
NCI-H23 = conditions: NCI Data NSC: 800934 ref 41; cited from earlier work
Breast cancer cell lines = conditions: read-out: MG-MID GI50; Breast Cancer subpanel; NCI Data NSC: 800934; cited from earlier work
SNB-19 = conditions: NCI Data NSC: 800934 ref 41; cited from earlier work
MCF7 = conditions: NCI Data NSC: 800934 ref 41; cited from earlier work
SN12C = conditions: NCI Data NSC: 800934 ref 41; cited from earlier work
OVCAR-5 = conditions: NCI Data NSC: 800934 ref 41; cited from earlier work
UACC-257 = conditions: NCI Data NSC: 800934 ref 41; cited from earlier work
CNS cancer cell lines = conditions: read-out: MG-MID GI50; CNS Cancer subpanel; NCI Data NSC: 800934; cited from earlier work
SK-MEL-2 = conditions: NCI Data NSC: 800934 ref 41; cited from earlier work
HT29 = conditions: NCI Data NSC: 800934 ref 41; cited from earlier work
SW-620 = conditions: NCI Data NSC: 800934 ref 41; cited from earlier work
[3] = system: Ovarian cancer cell lines; conditions: read-out: MG-MID GI50; Ovarian Cancer subpanel; NCI Data NSC: 800934; cited from earlier work
SNB-75 = conditions: NCI Data NSC: 800934 ref 41; cited from earlier work
HL-60(TB) = conditions: NCI Data NSC: 800934 ref 41; cited from earlier work
NCI-H460 = conditions: NCI Data NSC: 800934 ref 41; cited from earlier work
MOLT-4 = conditions: NCI Data NSC: 800934 ref 41; cited from earlier work
ACHN = conditions: NCI Data NSC: 800934 ref 41; cited from earlier work
OVCAR-4 = conditions: NCI Data NSC: 800934 ref 41; cited from earlier work
CCRF-CEM = conditions: NCI Data NSC: 800934 ref 41; cited from earlier work
T-47D = conditions: NCI Data NSC: 800934 ref 41; cited from earlier work
SF-295 = conditions: NCI Data NSC: 800934 ref 41; cited from earlier work
MALME-3M = conditions: NCI Data NSC: 800934 ref 41; cited from earlier work
SF-539 = conditions: NCI Data NSC: 800934 ref 41; cited from earlier work
HS 578 T = conditions: NCI Data NSC: 800934 ref 41; cited from earlier work
A549/ATCC = conditions: NCI Data NSC: 800934 ref 41; cited from earlier work
HCC-2998 = conditions: NCI Data NSC: 800934 ref 41; cited from earlier work
786-0 = conditions: NCI Data NSC: 800934 ref 41; cited from earlier work
NCI-H322M = conditions: NCI Data NSC: 800934 ref 41; cited from earlier work
SK-OV-3 = conditions: NCI Data NSC: 800934 ref 41; cited from earlier work
CAKI-1 = conditions: NCI Data NSC: 800934 ref 41; cited from earlier work
TK-10 = conditions: NCI Data NSC: 800934 ref 41; cited from earlier work
A498 = conditions: NCI Data NSC: 800934 ref 41; cited from earlier work
KM12 = conditions: NCI Data NSC: 800934 ref 41; cited from earlier work
SR = conditions: NCI Data NSC: 800934 ref 41; cited from earlier work
UACC-62 = conditions: NCI Data NSC: 800934 ref 41; cited from earlier work
HCT-116 (colon cancer) [4] = assay: Apoptosis AV/PI assay by flow cytometry; format: cell-based, human; conditions: HCT-116, 24 h, IC50 of compound
Cyt-c = assay: Gene expression by RT-qPCR in HCT-116; conditions: HCT-116, 24 h, IC50 of compound; vs 0.1% DMSO; 2^-ΔΔct
Bcl-2 = assay: Gene expression by RT-qPCR in HCT-116; conditions: HCT-116, 24 h, IC50 of compound; vs 0.1% DMSO; 2^-ΔΔct
Caspase-3 [5] = assay: Protein level by ELISA assay in HCT-116; format: cell-based, human; conditions: HCT-116, IC50 of compound, 24 h, vs 0.1% DMSO
TNF-α = assay: Gene expression by RT-qPCR in HCT-116; conditions: HCT-116, 24 h, IC50 of compound; vs 0.1% DMSO; 2^-ΔΔct
Bax [6] = assay: Gene expression by RT-qPCR in HCT-116; conditions: HCT-116, 24 h
Bax [7] = assay: Protein level by ELISA assay in HCT-116; format: cell-based, human; conditions: HCT-116, IC50 of compound, 24 h, vs 0.1% DMSO
Caspase-3 [8] = assay: Gene expression by RT-qPCR in HCT-116; conditions: HCT-116, 24 h, IC50 of compound; vs 0.1% DMSO; 2^-ΔΔct
HCT-116 (colon cancer) [9] = assay: Cell cycle analysis by PI flow cytometry; format: cell-based, human; conditions: HCT-116, 24 h, IC50 of compound

CNC(=O)c1cc(Oc2ccc(NC(=O)Nc3ccc(Cl)c(C(F)(F)F)c3)cc2)ccn1 [Sorafenib]
GI50 (U251): 3.16 µM
GI50 (LOX IMVI): 2.51 µM
GI50 (DU-145): 5.01 µM
GI50 (BT-549): 3.16 µM
GI50 (UO-31): 3.16 µM
GI50 (Renal cancer cell lines): 3.46 µM
GI50 (MDA-MB-435): 1.99 µM
GI50 (M14): 1.99 µM
GI50 [1]: 3.5 µM
GI50 (SK-MEL-28): 2.51 µM
GI50 (NCI/ADR-RES): 3.16 µM
GI50 (NCI-H522): 1.99 µM
GI50 (HCT-15): 2.51 µM
GI50 (RXF 393): 3.98 µM
GI50 [2]: 2.76 µM
GI50 (IGROV1): 3.16 µM
GI50 (Melanoma cell lines): 2.16 µM
GI50 (OVCAR-3): 3.98 µM
GI50 (Colon cancer cell lines): 2.68 µM
GI50 (HOP-62): 2.51 µM
GI50 (Leukaemia cell lines): 1.91 µM
GI50 (OVCAR-8): 3.16 µM
GI50 (EKVX): 3.16 µM
GI50 (NCI-H226): 1.25 µM
GI50 (SF-268): 3.98 µM
GI50 (NSCLC cell lines): 2.53 µM
GI50 (COLO 205): 2.51 µM
GI50 (PC-3): 1.99 µM
GI50 (NCI-H23): 1.99 µM
GI50 (Breast cancer cell lines): 2.76 µM
GI50 (SNB-19): 5.01 µM
GI50 (MCF7): 2.51 µM
GI50 (SN12C): 3.16 µM
GI50 (OVCAR-5): 3.16 µM
GI50 (UACC-257): 1.99 µM
GI50 (CNS cancer cell lines): 3.1 µM
GI50 (SK-MEL-2): 1.25 µM
GI50 (HT29): 2.51 µM
GI50 (SW-620): 3.98 µM
GI50 [3]: 3.27 µM
GI50 (SNB-75): 1.99 µM
GI50 (HL-60(TB)): 0.63 µM
GI50 (NCI-H460): 3.16 µM
GI50 (MOLT-4): 2.51 µM
GI50 (ACHN): 3.16 µM
GI50 (OVCAR-4): 3.16 µM
GI50 (CCRF-CEM): 3.16 µM
GI50 (T-47D): 1.99 µM
GI50 (SF-295): 2.51 µM
GI50 (MALME-3M): 3.16 µM
GI50 (SF-539): 1.99 µM
GI50 (HS 578 T): 3.16 µM
GI50 (A549/ATCC): 3.16 µM
GI50 (HCC-2998): 3.16 µM
GI50 (786-0): 3.98 µM
GI50 (NCI-H322M): 3.98 µM
GI50 (SK-OV-3): 3.16 µM
GI50 (CAKI-1): 3.16 µM
GI50 (TK-10): 3.98 µM
GI50 (A498): 3.16 µM
GI50 (KM12): 2.51 µM
GI50 (SR): 1.99 µM
GI50 (UACC-62): 2.51 µM

COc1cccc2c1C(=O)c1c(O)c3c(c(O)c1C2=O)C[C@@](O)(C(=O)CO)C[C@@H]3O[C@H]1C[C@H](N)[C@H](O)[C@H](C)O1 [Doxorubicin, reference compound]
% Early apoptotic cells (LR) (HCT-116 (colon cancer) [4]): 0.00 ± 0.0%
% Late apoptotic cells (UL) (HCT-116 (colon cancer) [4]): 3.86 ± 0.66%
% Necrotic cells (UR) (HCT-116 (colon cancer) [4]): 96.12 ± 14.1%
% Viable cells (LL) (HCT-116 (colon cancer) [4]): 0.03 ± 0.001%
Cyt-c gene expression fold change (Cyt-c): 44.32 ± 4.3 fold
Bcl-2 gene expression fold change (Bcl-2): 0.15 ± 0.03 fold
caspase-3 protein level (Caspase-3 [5]): 34.15 fold
TNF-α gene expression fold change (TNF-α): 2.33 fold and 2.33 ± 0.2 fold
Bax gene expression fold change (Bax [6]; IC50 of compound, vs 0.1% DMSO, 2^-ΔΔct): 0.31 ± 0.05 fold
Bax/Bcl-2 ratio (Bax [6]; ratio of gene expression fold changes): 2
Bax protein level (Bax [7]): 1.86 fold
Caspase-3 gene expression fold change (Caspase-3 [8]): 0.75 ± 0.09 fold
% G0-G1 (HCT-116 (colon cancer) [9]): 55.35 ± 6.3%
% G2M (HCT-116 (colon cancer) [9]): 15.05 ± 6.7%
% S (HCT-116 (colon cancer) [9]): 18.68 ± 2.2%
% SubG0-G1 (HCT-116 (colon cancer) [9]): 10.75 ± 2.3%

Reference: article PMC11003488 (Journal of Enzyme Inhibition and Medicinal Chemistry, 2023)
